Measurements taken from patent US12606773B2, “Ionizable cationic lipids” (Akagera Medicines, Inc., priority 2020, dated 2026).

Columns and labels:
[1] = LNP particle size and polydispersity (ZetaSizer); type: physicochemical; conditions: for Particle Size (nm): mCherry mRNA LNP, 50 mol % ICL, N/P 5, DSPC 10, cholesterol 38.5, PEG-DMG 1.5 mol %; for Particle Size (nm) Post-Freeze/Thaw / Polydispersity Index PDI: same LNPs; for Particle Size (nm) Post-Freeze/Thaw: Table 4, post freeze/thaw
Procedure: (§1) • 5. The number of wells used on each plate was counted and 4 was added to this number. For plate B, PBS was prepared with Ribogreen diluted 1:100. For example, for 40 wells, 44 was used as the number. 44×60 μL=2.64 mL Ribogreen solution needed, so that would be 2.61 mL PBS with 26.4 μL Ribogreen. • 6. For plate C, 2.61 mL Dissociation buffer and 26.4 uL Ribogreen was pipetted. • 7. Using a repeater pipette set for 60 μL, PBS+RiboGreen was added to each well on plate B and 60 μL Dissociation Buffer+Ribogreen to plate C. Both plates B and C were mixed on an orbital mixer (120 rpm) for 1 min. Plate B was placed in the dark for 15 min. Plate C was incubated at 37° C. in the dark for 10 min, followed by 5 min at RT. • 8. Both plates were read one after the other, using Ex. 465, Em. 530 nm • 9. Using the standard curve, the slope and intercept were calculated and by extrapolation the mRNA concentrations of the samples on plate B & C were calculated (average and std.dev) • 10. Percent encapsulation efficiency (% EE) by [mRNA] plate B/[mRNA] plate C×100 was calculated • 11. Total [mRNA] by taking [mRNA] plate C×dilution factor was calculated. B. LNP Particle Size • 1. […] C. LNP Zeta Potential • 1.

[2] = mRNA encapsulation efficiency by Ribogreen fluorescent binding dye; type: physicochemical; conditions: same LNPs; for Encapsulation Efficiency (%): Table 4; for % Encapsulation ± SD: Table 3
Procedure: A. mRNA Concentration and Relative Encapsulation Efficiency Determination by Fluorescent Binding Dye
• Materials: Ribogreen reagent (Thermo #11491), 3×96-well plates with lids, PBS, dissociation buffer (PBS with 10% DMSO and 1% (wt/wt) Zwittergent 3-14 (Sigma-Aldrich #693017), mRNA, general pipette tips & repeater pipette tips. • 1. 5 mL of 2 μg/mL mRNA stock were prepared in DPBS or PBS • 2. Diluted standards were prepared as follows in single wells in a 96-well plate (Plate A);
• 3. Using different wells in Plate A, samples were diluted to be within the standard curve, you'll need one well per sample. For example, if the approximate mRNA concentration should be ˜30 ug/mL in the sample, a 20× dilution was performed (Dilution Factor). (20 uL sample added to 380 μL PBS in a well). No lid was used on plate A. Samples were mixed by gentle pipetting up & down.
• 4. Two more plates, plates B & C were used. Using a multichannel pipettor, 60 μL of each standard 2 were pipetted into wells each (duplicate), and sample into 3 wells each (triplicate)
as §1

[3] = LNP zeta potential (ZetaSizer Pro); type: physicochemical; conditions: same LNPs; for Zeta Potential mV, pH 5: Table 4, pH 5; for Zeta Potential mV, pH 7: Table 4, pH 7
MutuDC1940 cells = experiment: Transfection efficiency of mCherry mRNA LNPs in murine dendritic cells; type: cell-based; conditions: LNPs 1 μg/mL, 24h
Procedure: A. Cell Propagation, Transfection, Harvesting and Staining Protocol
• 1. MutuDC1940 cells (ABM) were grown according to supplier's instructions in T75 flasks.
When required, they were plated at 180,000 cells/well into 24-well plate one day prior to transfection. • 2. LNPs were added in triplicate to each well at 1 μg/mL in 1 mL media and after 24h the cells were washed once with DPBS (VWR 02-0119-1000). • 3. 0.2 mL of DPBS (plus 5 mM EDTA, pH 7.4) was then added to facilitate detachment. • 4. The cells were placed at 37° C. for 3 min, until detached. • 5. 0.5 ml DPBS added to each well and the liquid transferred to a flow cytometry tube (Falcon 5 mL #352054) • 6. The tube was centrifuged at 1100 rpm for 3-5 min and the liquid poured off • 7. 100 μL of Zombie Violet (Biolegend) (diluted 1:500 in PBS) was added to each tube • 8. The tubes were gently tapped to resuspend cells and placed in the dark for 15 min at RT • 9. To the cells 0.5 mL of (paraformaldehyde 4% in PBS:DPBS 1:1) was added and the cells flicked gently to resuspend and put on ice for 30 min. Another 2 ml PBS was added. • 10. The cells were pelleted as above and resuspended in 0.5 mL DPBS with 5% BSA and placed in the fridge until needed. B. Cell Analysis • 1. Cells suspensions were analyzed by an Attune NxT flow cytometer using the VL1 and YL2 for live/dead and mCherry fluorescence signals respectively. Gating analysis was performed on FloJo software.

[4] = Accelerated oxidation with H2O2/Fe(III)Cl, main lipid peak by UHPLC-CAD; type: physicochemical; conditions: for % of parent lipid peak at time 0, 24 h / % of parent lipid peak at time 0, 48 h / % of parent lipid peak at time 0, 72 h: 1% H2O2, 100 μM Fe(III)Cl, 37° C.; for stability under accelerated oxidation with hydrogen peroxide: compared to counterparts with a single methylene separating the two olefins
Procedure: Individual lipid stocks (10 mM) were prepared in ethanol and stored at −20° C. […] Liposomal formulations based on AKG-UO-1 and 0-11769 ionizable cationic lipids (Table 5) were prepared by combining lipid mixtures of desired composition in 1 mL ethanol with 3 mL 6.25 mM sodium acetate, pH 5.0 at 6 mL/min on a NanoAssemblr (Precision Nanosystems). 3.6 mL of the mixture was retained, while the initial 0.35 mL of the mixture and final 0.05 mL were discarded. Ethanol was removed by buffer exchange into PBS, pH 7.4 by concentrating each liposome preparation using an Aminon-Ultra 4 centrifugal concentrator at 500 g for 10 min at 4° C. and diluting back to the original volume with PBS. This cycle was repeated multiple times until the ethanol concentration was <1%. Finally, liposomes were sterile filtered through 0.2 μm PES (Nalgene) syringe filters and size measured by a ZetaSizer (Malvern).
Aliquots of the liposomal formulations were stored at −80° C. and thawed before the experiment. A combined stock in water of 10% H2O2 (Sigma-Aldrich, cat #H1009) and 1 mM of Fe(III)Cl (Sigma-Aldrich, cat #372870) was freshly prepared prior to the treatment. To make 1% final concentration of H2O2 and 100 μM Fe(III)Cl, 10 μl of 10% H2O2/1 mM Fe(III)Cl stock was added to 90 μl of both liposomal formulations and individual lipids The liposomes and individual lipids were incubated with H2O2/Fe(III)Cl at 37° C. and then 5 μl from each sample was taken at different time points (0, 3, 24, 48 and 72 hours) and dissolved in 90 μl of MeOH for HPLC analysis. Degradation of the main lipid peak was analyzed using Thermo Scientific Vanquish Flex UHPLC occupied with Charged Aerosol Detector (CAD) and Thermo Scientific Accucore™ C18+ UHPLC column (L=50 mm, D=2.1 mm, Particle Size=1.5 μm).
The data are presented as a percentage of the main lipid peak measured at different time points relative to the lipid peak measured at time zero.

Structure (SMILES)	Particle Size (nm) ([1]; Table 4)	Particle Size (nm) Post-Freeze/Thaw [1] [nm]	Encapsulation Efficiency (%) [2] [%]	Zeta Potential mV, pH 5 [3] [mV]	Zeta Potential mV, pH 7 [3] [mV]	% of parent lipid peak at time 0, 24 h ([4]; ICL lipid suspensions) [%]	% of parent lipid peak at time 0, 48 h ([4]; ICL lipid suspensions) [%]	% of parent lipid peak at time 0, 72 h ([4]; ICL lipid suspensions) [%]	% of parent lipid peak at time 0, 72 h ([4]; Liposome preparations) [%]	stability under accelerated oxidation with hydrogen peroxide [4]	degradation after 48 hours of incubation with hydrogen peroxide [4]	Particle Size (nm) ([1]; Table 3)	Polydispersity Index PDI ([1]; Table 3)	% Encapsulation ± SD [2] [%]	fold higher mCherry expression than LNPs incorporating 0-11769 (MutuDC1940 cells; relative to 0-11769 LNP) [fold]	fold higher mCherry expression than KC2 (MutuDC1940 cells; relative to KC2 LNP) [fold]	fold higher mCherry expression than KC3 (MutuDC1940 cells; relative to KC3 LNP) [fold]
CCCCCCCC/C=C\CCCCCCCC(=O)OC[C@H](CCN(C)C)OC(=O)CCCCCCC/C=C\CCCCCCCC [AKG-DM2-OA]	77.6	111.5	64.9 ± 3.4	19.1	2.2	–	–	–	–	–	–	–	–	–	–	–	–
CCCCC/C=C\C/C=C\CCCCCCCC(=O)OC[C@H](CCN(C)C)OC(=O)CCCCCCC/C=C\C/C=C\CCCCC [Compound O-11769, reference compound]	83.0	89.6	87.5 ± 2.7	17.1	4.1	31 ± 0.9	1 ± 0.2	0.3 ± 0.1	3.9±0.06	–	fully degraded	–	–	–	–	–	–
CCCCCCCC/C=C\CCCCCCCC(=O)OC[C@H](CN(C)C)OC(=O)CCCCCCC/C=C\CCCCCCCC [DODAP, reference compound]	69.8	68.2	83.4 ± 7.7	10.2	−0.7	–	–	–	–	–	–	–	–	–	–	–	–
CCCCC/C=C\CCCC/C=C\CCCCC(=O)OC[C@H](CCN(CC)CC)OC(=O)CCCC/C=C\CCCC/C=C\CCCCC [AKG-UO1A, (S)-4-(diethylamino)butane-1,2-diyl (6Z,6′Z,12Z,12′Z)-bis(octadeca-6,12-dienoate)]	84.4	103.2	77.5 ± 0.9	28.0	−0.9	–	–	–	–	–	–	–	–	–	–	–	–
CCCCC/C=C\CCCC/C=C\CCCCCC1(CCCCC/C=C\CCCC/C=C\CCCCC)OC[C@H](CCN(C)C)O1 [KC2-01, 2-((S)-2,2-di((6Z,12Z)-octadeca-6,12-dien-1-yl)-1,3-dioxolan-4-yl)-N,N-dimethylethan-1-amine]	–	–	–	–	–	–	–	–	–	dramatically superior stability	–	70.7	0.06	88.9 ± 1.6	–	4.4	–
CCCCC/C=C\CCCC/C=C\CCCCCC1(CCCCC/C=C\CCCC/C=C\CCCCC)OC[C@H](CCCN(C)C)O1 [KC3-01, 3-((S)-2,2-di((6Z,12Z)-octadeca-6,12-dien-1-yl)-1,3-dioxolan-4-yl)-N,N-dimethylpropan-1-amine]	–	–	–	–	–	–	–	–	–	dramatically superior stability	–	91.6	0.03	88.9 ± 2.7	–	–	3.4

More lines, main results first:

Particle Size (nm) ([1]; Table 4)	Particle Size (nm) Post-Freeze/Thaw [1] [nm]	Encapsulation Efficiency (%) [2] [%]	Zeta Potential mV, pH 5 [3] [mV]	Zeta Potential mV, pH 7 [3] [mV]	% of parent lipid peak at time 0, 24 h ([4]; ICL lipid suspensions) [%]	% of parent lipid peak at time 0, 48 h ([4]; ICL lipid suspensions) [%]	% of parent lipid peak at time 0, 72 h ([4]; ICL lipid suspensions) [%]	% of parent lipid peak at time 0, 72 h ([4]; Liposome preparations) [%]	stability under accelerated oxidation with hydrogen peroxide [4]	degradation after 48 hours of incubation with hydrogen peroxide [4]	Particle Size (nm) ([1]; Table 3)	Polydispersity Index PDI ([1]; Table 3)	% Encapsulation ± SD [2] [%]	Structure (SMILES)	fold higher mCherry expression than LNPs incorporating 0-11769 (MutuDC1940 cells; relative to 0-11769 LNP) [fold]	fold higher mCherry expression than KC2 (MutuDC1940 cells; relative to KC2 LNP) [fold]	fold higher mCherry expression than KC3 (MutuDC1940 cells; relative to KC3 LNP) [fold]
98.0	122.6	75.4 ± 2.2	21.9	2.3	78 ± 0.6	74 ± 0.1	65 ± 2.5	73±0.05	dramatically superior stability	–	–	–	–	CCCCC/C=C\CCCC/C=C\CCCCC(=O)OC[C@H](CCN(C)C)OC(=O)CCCC/C=C\CCCC/C=C\CCCCC [UO-1, (S)-4-(dimethylamino)butane-1,2-diyl (6Z,6′Z,12Z,12′Z)-bis(octadeca-6,12-dienoate)]	4.2	–	–
–	–	–	–	–	–	–	0 ± 0.0	–	–	fully degraded	93.7	0.01	68.2 ± 3.7	CCCCC/C=C\C/C=C\CCCCCCCCC1(CCCCCCCC/C=C\C/C=C\CCCCC)OCC(CCN(C)C)O1 (centres unmarked) [KC2, reference compound]	–	–	–
–	–	–	–	–	–	–	0 ± 0.0	–	–	fully degraded	101.5	0.23	87.0 ± 2.3	CCCCC/C=C\C/C=C\CCCCCCCCC1(CCCCCCCC/C=C\C/C=C\CCCCC)OCC(CCCN(C)C)O1 (centres unmarked) [KC3, reference compound]	–	–	–
